EC50 and Ki data for 8 compounds are collected here from BindingDB's records for doi:10.1016/j.ejmech.2017.05.035 (Universidade Estadual De Feira De Santana, 2017).

Broadly, the pEC50 is −log10 of the EC50, conventionally taken in molar units. One may read the pKi as the Ki on a negative log10 scale, so that one unit is a factor of ten.

Each structure is given as a SMILES string. pEC50, pKi: −log10 of the molar value.

This assay in a line: Antagonist activity at Adenosine receptor subtype 2B in human RBC assessed as change in erythrocyte morphology incubated for 3 hrs with occasional gentle stirring for every 30 min measured for every 12 hrs by microscopic analysis.
In the case of `CC(OC(=O)c1nccnc1N)C(=O)NCc1ccc2c(c1)OCO2` (stereo not drawn), the pEC50 was 7.33.
With `Cc1ccc(N2CCN(C(=O)[C@H](C)Oc3ccc(-c4cc5c([nH]4)c(=O)n(C)c(=O)n5C)cc3)CC2)cc1`, the pKi was 8.74.
Regarding `O=C(CN1CCOC(Cn2cncn2)C1)Nc1cccnc1` (stereo not drawn), the pEC50 was 7.77.
In the case of `Cc1cc(NC(=O)CNc2ccc3c(c2)OC(F)(F)O3)on1`, the negative-log EC50 (pEC50) is 7.46.
For the compound `C[C@H](Oc1ccc(-c2cc3c([nH]2)c(=O)n(C)c(=O)n3C)cc1)C(=O)Nc1ccc(Br)cc1`, the pKi was 8.89.
Same read-out and setting: the value for `CCCn1c(=O)n(C)c(=O)c2[nH]c(-c3ccc(O[C@@H](C)C(=O)N4CCN(c5nc6ccc(Cl)cc6s5)CC4)cc3)cc21` was 9.00.
As for `CC(C)c1noc(OCC(=O)NCc2ccc3c(c2)OCO3)n1`, the pEC50 was 7.46.
In the case of `CCCc1cc(O)nc(SC(C)C(=O)Nc2cc(C)no2)n1` (stereo not drawn), the pEC50 is 7.64.
